The values that follow come from patent publication US11040036B2, “Pyruvate kinase activators for use in treating blood disorders” (Agios Pharmaceuticals, Inc., priority 2017, dated 2021).

Assay [1] deals with T1, wild type PKR (Homo sapiens, UniProt P30613). The assay can be described thus: PKR mutant assay (AC50), wild type PKR. As to conditions: wild type PKR enzyme; read-out: PKR WT AC50. The assay is classed as biochemical. In a few lines:
(§1)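 Compounds were tested from 100 μM final, 3-fold over 11 points, and held 60 min at room temperature with enzyme (40-400 ng/well wild-type, R510Q or K410E PKR). ADP 0.2-1.65 mM then started the reaction, with PEP 0.1-0.5 mM in pH 7.5 Tris/KCl/MgCl2 buffer. LDH/NADH (180 μM) coupled read-out was taken as A340 change, fitted to AC50.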

Assay [2] concerns the target PKR K410E (Homo sapiens, UniProt P30613, K410E). Kind of assay: PKR mutant assay (AC50), PKR K410E. Type of assay: biochemical. As to conditions: PKR K410E mutant enzyme. In a few lines:
as §1

Assay [3] deals with PKR R510Q (Homo sapiens, UniProt P30613, R510Q). Kind of assay: PKR mutant assay (AC50), PKR R510Q. The assay is classed as biochemical. As to conditions: PKR R510Q mutant enzyme; read-out: PK R510Q AC50. In a few lines:
as §1

Assay [4] addresses T1, wild type PKR. The assay can be described thus: Cell based ATP assay in purified red blood cells. Also noted: endogenous in cells; host or cells: purified red blood cells from blood of healthy volunteers. As to conditions: RBCs, overnight at 37° C., ATP levels by Cell-Titer-Glo. In a few lines:
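ATP content was measured by CellTiter-Glo after overnight exposure to compound at 37 °C. Cells were purified red blood cells from healthy donors, filtered to remove leukocytes and suspended at 1×10^7 cells/mL in AGAM medium. Compounds were serially diluted 1:4, with 0.1% DMSO final.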

SMILES strings stand for the structures. A value given as a limit tells only on which side of the number the result lay.

T1 sequence (P30613 whole entry): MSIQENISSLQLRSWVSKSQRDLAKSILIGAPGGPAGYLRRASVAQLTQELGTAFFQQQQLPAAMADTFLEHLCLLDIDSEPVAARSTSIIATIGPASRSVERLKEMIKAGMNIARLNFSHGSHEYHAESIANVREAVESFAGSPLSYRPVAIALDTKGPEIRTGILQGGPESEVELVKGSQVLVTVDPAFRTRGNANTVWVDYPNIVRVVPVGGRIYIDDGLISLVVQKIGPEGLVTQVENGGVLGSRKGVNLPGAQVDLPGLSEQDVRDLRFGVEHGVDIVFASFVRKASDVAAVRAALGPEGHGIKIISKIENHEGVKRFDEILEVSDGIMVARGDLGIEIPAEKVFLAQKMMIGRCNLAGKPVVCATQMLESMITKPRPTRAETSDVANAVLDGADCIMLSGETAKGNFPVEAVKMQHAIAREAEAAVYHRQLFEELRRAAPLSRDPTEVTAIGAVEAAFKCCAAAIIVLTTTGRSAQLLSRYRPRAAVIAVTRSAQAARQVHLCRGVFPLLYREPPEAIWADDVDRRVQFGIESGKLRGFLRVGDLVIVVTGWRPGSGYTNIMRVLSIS
Sequence of PKR K410E (P30613 whole entry K410E): as the sequence (P30613 whole entry) above, with K410E counted along it
Sequence of PKR R510Q (P30613 whole entry R510Q): as the sequence (P30613 whole entry) above, with R510Q counted along it

For the compound `Cn1c2nc(Cc3cc[nH]n3)sc2c2cnn(Cc3ncsc3C(N)=O)c(=O)c21`, the AC50 (usually the midpoint of the concentration-response curve, whichever way the signal moves) is less than 300 nM in assay [1], less than 300 nM in assay [2], less than 300 nM in assay [3] and no more than 1000 nM in assay [4].

Consider `Cn1c2nc(Cc3cc[nH]n3)sc2c2cnn(Cc3cnc(N)s3)c(=O)c21`, for which the half-maximal activity concentration (AC50) in assay [1] is less than 300 nM; in assay [2] it was less than 300 nM; in assay [3], less than 300 nM; in assay [4] it was no more than 1000 nM.

In the case of `Cn1c2nc(Cc3cc[nH]n3)sc2c2cnn(Cc3c[nH]cn3)c(=O)c21`, the AC50 in assay [1] is less than 300 nM; in assay [2] it was less than 300 nM; in assay [3] it was less than 300 nM; in assay [4], no more than 1000 nM.

Take `Cn1c2nc(Cc3ccn[nH]3)sc2c2cnn(Cc3cn[nH]c3)c(=O)c21`: the AC50 is less than 300 nM in assay [1], less than 300 nM in assay [2], less than 300 nM in assay [3] and no more than 1000 nM in assay [4].

As to `Cn1c2nc(Cc3cc[nH]n3)sc2c2cnn(Cc3c[nH]nn3)c(=O)c21`, the AC50 in assay [1] is less than 300 nM; in assay [2], less than 300 nM; in assay [3], less than 300 nM; in assay [4], no more than 1000 nM.

Consider `Cn1c2nc(Cc3cc[nH]n3)sc2c2cnn(Cc3ccns3)c(=O)c21`, for which the half-maximal activity concentration (AC50) is less than 300 nM in assay [1], less than 300 nM in assay [2], less than 300 nM in assay [3] and no more than 1000 nM in assay [4].

With `Cn1c2nc(Cc3cc[nH]n3)sc2c2cnn(Cc3csc(Cl)n3)c(=O)c21`, the AC50 is less than 300 nM in assay [1], less than 300 nM in assay [2], less than 300 nM in assay [3] and no more than 1000 nM in assay [4].

As to `Cn1c2nc(Cc3cc[nH]n3)sc2c2cnn(Cc3ccn(N)n3)c(=O)c21`, the AC50 is less than 300 nM in assay [1], less than 300 nM in assay [2], less than 300 nM in assay [3] and no more than 1000 nM in assay [4].

On to `COCc1cn(C)nc1Cn1ncc2c3sc(Cc4cc[nH]n4)nc3n(C)c2c1=O`, for which the AC50 was greater than 800 nM in assay [1], greater than 800 nM in assay [2], greater than 800 nM in assay [3] and greater than 1000 nM in assay [4].

`Cn1c2nc(Cc3cc[nH]n3)sc2c2cnn(Cc3ncoc3Cl)c(=O)c21`: the AC50 is less than 300 nM in assay [1], less than 300 nM in assay [2], less than 300 nM in assay [3] and no more than 1000 nM in assay [4].

Regarding `Cn1c2nc(Cc3cc[nH]n3)sc2c2cnn(Cc3n[nH]cc3OC(F)(F)F)c(=O)c21`, the AC50 was 301 to 800 nM in assay [1], 301 to 800 nM in assay [2], 301 to 800 nM in assay [3] and greater than 1000 nM in assay [4].

Regarding `Cn1c2nc(Cc3cc[nH]n3)sc2c2cnn(Cc3coc(N)n3)c(=O)c21`, the AC50 in assay [1] is less than 300 nM; in assay [2] it was less than 300 nM; in assay [3], less than 300 nM; in assay [4], no more than 1000 nM.

`Cn1cc(CN)c(Cn2ncc3c4sc(Cc5cc[nH]n5)nc4n(C)c3c2=O)n1`: the AC50 in assay [1] was greater than 800 nM; in assay [2], greater than 800 nM; in assay [3], less than 300 nM; in assay [4], greater than 1000 nM.

In the case of `Cn1cc(CC(N)=O)c(Cn2ncc3c4sc(Cc5cc[nH]n5)nc4n(C)c3c2=O)n1`, the AC50 in assay [1] was greater than 800 nM; in assay [2], greater than 800 nM; in assay [3], greater than 800 nM; in assay [4], greater than 1000 nM.

Turning to `Cn1c2nc(Cc3cc[nH]n3)sc2c2cnn(Cc3nc[nH]c3C(N)=O)c(=O)c21`, the AC50 was 301 to 800 nM in assay [1], 301 to 800 nM in assay [2], greater than 800 nM in assay [3] and greater than 1000 nM in assay [4].

Regarding `Cn1c2nc(Cc3cc[nH]n3)sc2c2cnn(Cc3csc(F)n3)c(=O)c21`, the AC50 in assay [1] is less than 300 nM; in assay [2], less than 300 nM; in assay [3], less than 300 nM; in assay [4], no more than 1000 nM.

For `Cn1c2nc(Cc3cc[nH]n3)sc2c2cnn(Cc3ccnn3N)c(=O)c21`, the concentration at half-maximal activity (AC50) was less than 300 nM in assay [1], less than 300 nM in assay [2], less than 300 nM in assay [3] and no more than 1000 nM in assay [4].

As to `Cn1c2nc(Cc3cc[nH]n3)sc2c2cnn(Cc3n[nH]c(=O)[nH]3)c(=O)c21`, the AC50 was greater than 800 nM in assay [1], greater than 800 nM in assay [2], greater than 800 nM in assay [3] and greater than 1000 nM in assay [4].

Turning to `Cn1c2nc(Cc3cc[nH]n3)sc2c2cnn(Cc3coc(C(N)=O)n3)c(=O)c21`, the AC50 in assay [1] was greater than 800 nM; in assay [2] it was greater than 800 nM; in assay [3], greater than 800 nM; in assay [4] it was no more than 1000 nM.

Turning to `Cn1c2nc(Cc3cc[nH]n3)sc2c2cnn(Cc3cc(=O)[nH][nH]3)c(=O)c21`, the AC50 is 301 to 800 nM in assay [1], 301 to 800 nM in assay [2], less than 300 nM in assay [3] and greater than 1000 nM in assay [4].

On to `Cn1c2nc(Cc3cc[nH]n3)sc2c2cnn(Cc3nc[nH]c3N)c(=O)c21`, for which the AC50 is 301 to 800 nM in assay [1], 301 to 800 nM in assay [2], 301 to 800 nM in assay [3] and greater than 1000 nM in assay [4].

With `Cn1c2nc(Cc3cc[nH]n3)sc2c2cnn(Cc3ccnc(N)n3)c(=O)c21`, the concentration at half-maximal activity (AC50) in assay [1] is less than 300 nM; in assay [2] it was less than 300 nM; in assay [3], less than 300 nM; in assay [4] it was no more than 1000 nM.

With `Cn1c2nc(Cc3cc[nH]n3)sc2c2cnn(Cc3nccc(N)n3)c(=O)c21`, the AC50 was less than 300 nM in assay [1], 301 to 800 nM in assay [2], less than 300 nM in assay [3] and no more than 1000 nM in assay [4].

Take `COc1sc(Br)nc1Cc1nc2c(s1)c1cnn(Cc3cc[nH]n3)c(=O)c1n2C`: the AC50 in assay [1] was less than 300 nM; in assay [2], less than 300 nM; in assay [3] it was less than 300 nM; in assay [4] it was no more than 1000 nM.

Turning to `COc1scnc1Cc1nc2c(s1)c1cnn(Cc3cc[nH]n3)c(=O)c1n2C`, the half-maximal activity concentration (AC50) in assay [1] is less than 300 nM; in assay [2], less than 300 nM; in assay [3], less than 300 nM; in assay [4], no more than 1000 nM.

Regarding `Cn1cc(C(=O)O)c(Cn2ncc3c4sc(Cc5cc[nH]n5)nc4n(C)c3c2=O)n1`, the AC50 in assay [1] is greater than 800 nM; in assay [2], greater than 800 nM; in assay [3] it was greater than 800 nM; in assay [4], greater than 1000 nM.

For the compound `Cn1c2nc(Cc3n[nH]cc3F)sc2c2cnn(Cc3n[nH]cc3Cl)c(=O)c21`, the concentration at half-maximal activity (AC50) in assay [1] was less than 300 nM; in assay [2] it was less than 300 nM; in assay [3], less than 300 nM; in assay [4], no more than 1000 nM.

For the compound `Cn1c2nc(Cc3n[nH]cc3F)sc2c2cnn(Cc3n[nH]cc3C(N)=O)c(=O)c21`, the half-maximal activity concentration (AC50) was less than 300 nM in assay [1], less than 300 nM in assay [2], less than 300 nM in assay [3] and no more than 1000 nM in assay [4].

Turning to `COc1ncccc1Cn1ncc2c3sc(Cc4n[nH]cc4F)nc3n(C)c2c1=O`, the AC50 in assay [1] is less than 300 nM; in assay [2], less than 300 nM; in assay [3] it was less than 300 nM; in assay [4] it was no more than 1000 nM.

Turning to `Cn1c2nc(Cc3n[nH]cc3F)sc2c2cnn(Cc3ccc[nH]c3=O)c(=O)c21`, the concentration at half-maximal activity (AC50) was less than 300 nM in assay [1], less than 300 nM in assay [2], less than 300 nM in assay [3] and no more than 1000 nM in assay [4].

On to `Cn1c2nc(Cc3n[nH]cc3F)sc2c2cnn(Cc3n[nH]cc3C#N)c(=O)c21`, for which the AC50 was less than 300 nM in assay [1], less than 300 nM in assay [2], less than 300 nM in assay [3] and no more than 1000 nM in assay [4].

With `CC(=O)Nc1ccc(F)c(Cn2ncc3c4sc(Cc5cnn(C)c5)nc4n(C)c3c2=O)n1`, the AC50 in assay [1] was greater than 800 nM; in assay [2] it was greater than 800 nM; in assay [3], greater than 800 nM; in assay [4], greater than 1000 nM.

As for `Cn1ccc(Cn2ncc3c4sc(C(=O)c5cc[nH]n5)nc4n(C)c3c2=O)n1`, the AC50 is greater than 800 nM in assay [1], greater than 800 nM in assay [2], greater than 800 nM in assay [3] and no more than 1000 nM in assay [4].

On to `Cn1c2nc(C(=O)c3cc[nH]n3)sc2c2cnn(Cc3cccc(N)n3)c(=O)c21`, for which the AC50 in assay [1] was 301 to 800 nM; in assay [2] it was less than 300 nM; in assay [3] it was less than 300 nM; in assay [4], no more than 1000 nM.

As for `CC(=O)Nc1ccc(F)c(Cn2ncc3c4sc(Cn5ccnc5)nc4n(C)c3c2=O)c1`, the AC50 in assay [1] was greater than 800 nM; in assay [2] it was greater than 800 nM; in assay [3], greater than 800 nM; in assay [4] it was greater than 1000 nM.

Turning to `Cn1c2nc(Cc3ccccn3)sc2c2cnn(Cc3cccnc3)c(=O)c21`, the AC50 in assay [1] is 301 to 800 nM; in assay [2], 301 to 800 nM; in assay [3] it was less than 300 nM; in assay [4] it was no more than 1000 nM.

On to `Cn1c2nc(Cn3cncn3)sc2c2cnn(Cc3ccnc(N)n3)c(=O)c21`, for which the AC50 in assay [1], in assay [2] and in assay [3] was greater than 800 nM throughout. Also, the “Cell based ATP assay AC50” value in assay [4] was “No Fit”.

With `Cn1c2nc(Cn3ccnc3)sc2c2cnn(Cc3ccnc(N)n3)c(=O)c21`, the AC50 in assay [1], in assay [2] and in assay [3] was greater than 800 nM each time. For the same compound, the “Cell based ATP assay AC50” value in assay [4] is on record as “No Fit”.

For the compound `CC(c1cc[nH]n1)c1nc2c(s1)c1cnn(Cc3cc[nH]n3)c(=O)c1n2C` (stereo not shown), the AC50 in assay [1] was less than 300 nM; in assay [2], less than 300 nM; in assay [3], less than 300 nM; in assay [4] it was no more than 1000 nM.

For the compound `Cn1c2nc(C(=O)c3cc[nH]n3)sc2c2cnn(Cc3cc[nH]n3)c(=O)c21`, the AC50 in assay [1] is 301 to 800 nM; in assay [2], greater than 800 nM; in assay [3], 301 to 800 nM; in assay [4], no more than 1000 nM.
